Measured values taken from article PMC7935272 (PLoS Pathogens, 2021).
Values joined by “and” are separate entries in the source; they are usually repeats but may differ in a detail not shown here. Equal values may be shown once.

What was measured:
MeV L L1170F = molecular target: T1, MeV L L1170F (Measles virus, UniProt P12576, L1170F); test: MeV minigenome dose-response assay, L L1170F; assay type: cell-based; conditions: for minigenome activity, individual repeat: Figure 1E
T1 construct: expressed in transfected cells; host or cells: BSR-T7/5

MeV L1708 E858D = molecular target: MeV L1708 E858D; set-up: method as in PMID 32661315; conditions: BLI, reported previously ref 36; cited from earlier work
MeV L E858D [1] = molecular target: T2, MeV L E858D (Measles virus, UniProt P12576, E858D); set-up: method as in PMID 32661315; conditions: minigenome, reported previously ref 36; cited from earlier work
T2 construct: expressed in transfected cells; host or cells: BSR-T7/5

MeV L1708 I1009F = molecular target: MeV L1708 I1009F; set-up: method as in PMID 32661315; conditions: BLI, reported previously ref 36; cited from earlier work
MeV L T1010N [2] = molecular target: T3, MeV L T1010N (Measles virus, UniProt P12576, T1010N); set-up: method as in PMID 32661315; conditions: minigenome, reported previously ref 36; cited from earlier work
T3 construct: expressed in transfected cells; host or cells: BSR-T7/5

MeV L T1010N [3] = molecular target: T3, MeV L T1010N; test: MeV minigenome dose-response assay, L T1010N; assay type: cell-based; conditions: EC50, L T1010N vs WT
MeV L V1239A = molecular target: T4, MeV L V1239A (Measles virus, UniProt P12576, V1239A); test: MeV minigenome dose-response assay, L V1239A; assay type: cell-based; conditions: for minigenome activity, individual repeat: Figure 1E
T4 construct: expressed in transfected cells; host or cells: BSR-T7/5

MeV L = molecular target: T5, MeV L (Measles virus, UniProt P12576); test: MeV minigenome dose-response assay, L WT; assay type: cell-based; conditions: for minigenome activity, individual repeat: WT, Figure 1E
T5 construct: expressed in transfected cells; host or cells: BSR-T7/5

MeV L1708 = MeV L1708 (Measles virus, UniProt Q9WMB3); set-up: method as in PMID 32661315; conditions: BLI, MeV L1708 WT; reported previously ref 36; cited from earlier work
MeV L1708 Y1106S = molecular target: MeV L1708 Y1106S; set-up: method as in PMID 32661315; conditions: BLI, reported previously ref 36; cited from earlier work
MeV L E858D [4] = molecular target: T2, MeV L E858D; test: MeV minigenome dose-response assay, L E858D; assay type: cell-based; conditions: EC50, L E858D vs WT
MeV L Y1106S [5] = molecular target: T6, MeV L Y1106S (Measles virus, UniProt P12576, Y1106S); set-up: method as in PMID 32661315; conditions: minigenome, reported previously ref 36; cited from earlier work
T6 construct: expressed in transfected cells; host or cells: BSR-T7/5

MeV L T776A = molecular target: T7, MeV L T776A (Measles virus, UniProt P12576, T776A); test: MeV minigenome dose-response assay, L T776A; assay type: cell-based
T7 construct: expressed in transfected cells; host or cells: BSR-T7/5

MeV L Y1106S [6] = molecular target: T6, MeV L Y1106S; test: MeV minigenome dose-response assay, L Y1106S; assay type: cell-based; conditions: EC50, L Y1106S vs WT
MeV L H589Y = molecular target: T8, MeV L H589Y (Measles virus, UniProt P12576, H589Y); test: MeV minigenome dose-response assay, L H589Y; assay type: cell-based; conditions: for minigenome activity, individual repeat: H589Y, Figure 1E
T8 construct: expressed in transfected cells; host or cells: BSR-T7/5

MeV L S768A = molecular target: T9, MeV L S768A (Measles virus, UniProt P12576, S768A); test: MeV minigenome dose-response assay, L S768A; assay type: cell-based
T9 construct: expressed in transfected cells; host or cells: BSR-T7/5

MeV L I1009F [7] = molecular target: T10, MeV L I1009F (Measles virus, UniProt P12576, I1009F); test: MeV minigenome dose-response assay, L I1009F; assay type: cell-based; conditions: EC50, L I1009F vs WT
T10 construct: expressed in transfected cells; host or cells: BSR-T7/5

MeV L I1009F [8] = molecular target: T10, MeV L I1009F; set-up: method as in PMID 32661315; conditions: minigenome, reported previously ref 36; cited from earlier work

## NC(=O)c1c(F)cccc1-c1cccc2cnccc12 [GHP-88309]
MeV L L1170F; EC50, L L1170F vs WT
  fold change to WT: 0.7
MeV L L1170F; GHP-88309 0.0457247 µM, L L1170F
  minigenome activity, individual repeat: 120 and 119 and 105
MeV L L1170F; GHP-88309 0.137174 µM, L L1170F
  minigenome activity, individual repeat: 97 and 98 and 103
MeV L L1170F; GHP-88309 0.411523 µM, L L1170F
  minigenome activity, individual repeat: 56 and 67 and 65
MeV L L1170F; GHP-88309 1.23457 µM, L L1170F
  minigenome activity, individual repeat: 92 (2×) and 86
MeV L L1170F; GHP-88309 3.7037 µM, L L1170F
  minigenome activity, individual repeat: 27 and 26 and 21
MeV L L1170F; GHP-88309 11.1111 µM, L L1170F
  minigenome activity, individual repeat: 0 (2×) and 1
MeV L L1170F; GHP-88309 33.3333 µM, L L1170F
  minigenome activity, individual repeat: -1 and 0 (2×)
MeV L L1170F; minigenome, L L1170F
  EC50: 2.41 µM
MeV L1708 E858D
  Kd: 8.6 µM
MeV L E858D [1]
  EC50: 15 µM
MeV L1708 I1009F
  Kd: 68.3 µM
MeV L T1010N [2]
  EC50: 8.36 µM
MeV L T1010N [3]
  fold change to WT: 3.8
MeV L V1239A; EC50, L V1239A vs WT
  fold change to WT: 0.7
MeV L V1239A; GHP-88309 0.0457247 µM, L V1239A
  minigenome activity, individual repeat: 96 and 97 and 118
MeV L V1239A; GHP-88309 0.137174 µM, L V1239A
  minigenome activity, individual repeat: 120 and 103
MeV L V1239A; GHP-88309 0.411523 µM, L V1239A
  minigenome activity, individual repeat: 66 and 59 (2×)
MeV L V1239A; GHP-88309 1.23457 µM, L V1239A
  minigenome activity, individual repeat: 80 and 79 (2×)
MeV L V1239A; GHP-88309 3.7037 µM, L V1239A
  minigenome activity, individual repeat: 33 (2×) and 30
MeV L V1239A; GHP-88309 11.1111 µM, L V1239A
  minigenome activity, individual repeat: 2 (2×) and 3
MeV L V1239A; GHP-88309 33.3333 µM, L V1239A
  minigenome activity, individual repeat: -2 and 1 (2×)
MeV L V1239A; minigenome, L V1239A
  EC50: 2.03 µM
MeV L; GHP-88309 0.411523 µM
  minigenome activity, individual repeat: 87.746 and 92.4701
MeV L; GHP-88309 1.23457 µM
  minigenome activity, individual repeat: 77.6244 and 62.4876 and 68.5227 and 90 and 86 and 112
MeV L; GHP-88309 3.7037 µM
  minigenome activity, individual repeat: 31.991 and 34.7895 and 30.6512 and 25 and 32 and 29
MeV L; GHP-88309 11.1111 µM
  minigenome activity, individual repeat: 2.411 and 2.106 and 2.445 and 2 and 4 and 3
MeV L; GHP-88309 33.3333 µM
  minigenome activity, individual repeat: 1.248 and 0.5543 and 0.7091 and -4 and 2 and 3
MeV L; GHP-88309 100 µM
  minigenome activity, individual repeat: 0.7732 and 1.544 and 0.3453
MeV L; minigenome, L WT
  EC50: 2.4 µM
MeV L1708
  Kd: 6.2 µM
MeV L1708 Y1106S
  Kd: > 300 µM
MeV L E858D [4]
  fold change to WT: 6.7
MeV L Y1106S [5]
  EC50: > 100 µM
MeV L T776A; EC50, L T776A vs WT
  fold change to WT: 1.1
MeV L T776A; minigenome, L T776A
  EC50: 2.39 µM
MeV L Y1106S [6]
  fold change to WT: >50
MeV L H589Y; EC50, L H589Y vs WT
  fold change to WT: 1.8
MeV L H589Y; GHP-88309 0.0457247 µM
  minigenome activity, individual repeat: 99.134 and 165.3 and 161.609
MeV L H589Y; GHP-88309 0.137174 µM
  minigenome activity, individual repeat: 129.072 and 126.646 and 70.0978
MeV L H589Y; GHP-88309 0.411523 µM
  minigenome activity, individual repeat: 102.614 and 60.5017 and 60.0219
MeV L H589Y; GHP-88309 1.23457 µM
  minigenome activity, individual repeat: 96.1391 and 78.5761 and 76.4935
MeV L H589Y; GHP-88309 3.7037 µM
  minigenome activity, individual repeat: 76.5304 and 44.0459 and 30.8961
MeV L H589Y; GHP-88309 11.1111 µM
  minigenome activity, individual repeat: 19.3913 and 21.0627 and 38.9421
MeV L H589Y; GHP-88309 33.3333 µM
  minigenome activity, individual repeat: 3.067 and 1.981 and 4.217
MeV L H589Y; GHP-88309 100 µM
  minigenome activity, individual repeat: -0.2175 and 2.229 and 0.06723
MeV L H589Y; minigenome, L H589Y
  EC50: 3.91 µM
MeV L S768A; EC50, L S768A vs WT
  fold change to WT: 0.6
MeV L S768A; minigenome, L S768A
  EC50: 1.26 µM
MeV L I1009F [7]
  fold change to WT: 8.3
MeV L I1009F [8]
  EC50: 18.6 µM
